Data on 24 compounds can be found in patent US11203578B2, “Oxadiazole derivatives for the treatment of genetic diseases due to nonsense mutations” (UNIVERSITA' DEGLI STUDI DIPALERMO, priority 2017, dated 2021).

Series [1] concerns pFLuc-opal (UGA stop mutation). Description: FLuc cell-based readthrough assay in HeLa FLuc-opal transfected cells. As to conditions: for Pharm Set: class of activity related to the FLUC values. Also noted: key to Pharm Set: Active: as active, compounds with FLUC values >4.52 (ATALUREN FLUC value); Inactive: as inactives, compounds with FLUC values ≤4.00; Moderate: as moderate actives, compounds with 4.39≤FLUC values ≤4,51. From the text: The results disclosed in (Pibiri I., Lentini L., Tutone M., Melfi R., Pace A., Di Leonardo A. Exploring the readthrough of nonsense mutations by non-acidic Ataluren analogues selected by ligand-based virtual screening. Eur. J. Med. Chem. 122 (2016) 429-435) have been refined with 3D-QSAR (quantitative structure-activity relationships) pharmacophore modelling. The endpoint to build QSAR models was the luciferase activity known data. These values were converted to pFLUC (−log FLUC) values. In order to find the common pharmacophore hypothesis, we divided the 24 compounds in three different classes of activity related to the FLUC values (Pharm set). We considered as active, compounds with FLUC values >4.52 (ATALUREN FLUC value), as inactives, compounds with FLUC values ≤4.00, and as moderate actives, compounds with 4.39≤FLUC values ≤4,51. Dataset was randomly split into a training set (19 compounds) for models generation, and test set (5 compounds) for the validation of developed models, as reported in Table 1.
To ascertain the effectiveness of the newly synthesized ataluren analogues in promoting the readthrough of premature termination codons was used the FLuc cell-based assay. To this aim HeLa cells were transfected transiently with the plasmids pFLuc-wild type (control) and pFLuc-opal (UGA stop mutation) (NIH Chemical Genomics Center, National Institutes of Health, Bethesda, USA). FLuc gene expression was then measured by luminescence.

In series [2] the test system is pFLuc-opal (UGA stop mutation). The settings on record: luciferase activity known data, converted to pFLUC (−log FLUC); literature [1], [2]; cited from earlier work.
The next series has as its system HeLa cells. Description: Cytotoxic effects and impact on cell proliferation in HeLa cells. It counts as cell-based. The settings on record: 12 μM. How it is done:
HeLa cells were used to determine the possible cytotoxic effects of our compounds and the impact on cell proliferation. In FIG. 7 are reported the percentages of dead cells and proliferating cells after treatment with 12 μM compounds and 12 μM ATALUREN.

Values joined by “and” are separate entries in the source; they are usually repeats but may differ in a detail not shown here. Identical values can stand only once. Like-named read-outs stand apart in the source and are kept apart here.

For `COC(=O)c1cccc(-c2noc(-c3cccc(F)c3F)n2)c1` [Compound 8-NV1170, Methyl 3-(5-(2,3-difluorophenyl)-1,2,4-oxadiazol-3-yl)ben zoate)], in series [1], the “Pharm Set” value is recorded as “Moderate (as moderate actives, compounds with 4.39≤FLUC values ≤4,51)”. Also, the “RLU values Exp.” value in series [2] was 4.311.
As for `Cc1cccc(-c2nc(-c3ccncc3)no2)c1` [Compound 16-NV1861, 3-(4′-pyridyl)-5-(3′-toluyl)-1,2,4-oxadiazole], the “Pharm Set” value in series [1] is “Moderate (as moderate actives, compounds with 4.39≤FLUC values ≤4,51)”. For the same compound, in series [2], the “RLU values Exp.” value is on record as 4.250.
For the compound `Cc1cccc(-c2noc(-c3ccccc3F)n2)c1` [Compound 12-NV1798, 3-Toluyl, 5-(2-fluorophenyl)-1,2,4-oxadiazole], the “Pharm Set” value in series [1] is reported as “Inactive”. Also, in series [2], the “RLU values Exp.” value is given as 4.178.
For `Cc1cccc(-c2nc(-c3cccnc3)no2)c1` [Compound 17-NV1879, 3-(3′-pyridyl)-5-(3′-toluyl)-1,2,4-oxadiazole], the “Pharm Set” value in series [1] is given as “Moderate (as moderate actives, compounds with 4.39≤FLUC values ≤4,51)”. Moreover, in series [2], the “RLU values Exp.” value was 4.411.
Consider `COC(=O)c1cccc(-c2noc(-c3ccc(F)cc3)n2)c1` [Compound 6-NV1153], for which the “Pharm Set” value in series [1] is given as “Inactive”. The “RLU values Exp.” value in series [2] is on record as 4.125.
In the case of `COC(=O)c1cccc(-c2noc(-c3cccc(F)c3F)n2)c1` [Compound 7-NV1149], the “Pharm Set” value in series [1] is given as “Inactive”. In addition, the “RLU values Exp.” value in series [2] is 4.103.
As for `COC(=O)c1cccc(-c2noc(-c3cccc(F)c3)n2)c1` [Compound 2-NV1127], the “Pharm Set” value in series [1] is “Moderate (as moderate actives, compounds with 4.39≤FLUC values ≤4,51)”. For the same compound, the “RLU values Exp.” value in series [2] was 4.477.
For the compound `Cc1cccc(-c2nc(-c3ccccc3)no2)c1` [Compound 18-NV1883, 3-(3′-phenyl)-5-(3′-toluyl)-1,2,4-oxadiazole], the “Pharm Set” value in series [1] was “Moderate (as moderate actives, compounds with 4.39≤FLUC values ≤4,51)”. Further, the “RLU values Exp.” value in series [2] is reported as 4.428.
Take `O=C(O)c1cccc(-c2noc(-c3cc(F)c(F)cc3F)n2)c1` [Compound 5-NV1173, 3-(5-(2,4,5-Trifluorophenyl)-1,2,4-oxadiazol-3-yl)benzoic acid]: in series [1], the “Pharm Set” value is given as “Active”. For the same compound, in series [2], the “RLU values Exp.” value is given as 4.788.
On to `O=C(O)c1cccc(-c2noc(-c3cccc(F)c3)n2)c1` [Compound 3-NV1133, 3-(5-(3-Fluorophenyl)-1,2,4-oxadiazol-3-yl)benzoic acid], for which the “Pharm Set” value in series [1] was “Active”. The “RLU values Exp.” value in series [2] is 4.628.
Take `COC(=O)c1cccc(-c2noc(-c3c(F)cccc3F)n2)c1` [Compound 11-NV1174, Methyl 3-(5-(2,6-difluorophenyl)-1,2,4-oxadiazol-3-yl)ben-zoate)]: the “Pharm Set” value in series [1] was “Moderate (as moderate actives, compounds with 4.39≤FLUC values ≤4,51)”. Besides, the “RLU values Exp.” value in series [2] is reported as 4.414.
Regarding `COC(=O)c1cccc(-c2noc(-c3ccc(F)c(F)c3)n2)c1` [Compound 9-NV1175, Methyl 3-(5-(3,4-difluorophenyl)-1,2,4-oxadiazol-3-yl)ben-zoate)], the “Pharm Set” value in series [1] was “Moderate (as moderate actives, compounds with 4.39≤FLUC values ≤4,51)”. Besides, in series [2], the “RLU values Exp.” value is on record as 4.269.
As to `O=C(O)c1cccc(-c2noc(-c3c(F)c(F)c(F)c(F)c3F)n2)c1` [Compound 14-NV1954, 3-(5-(Perfluorophenyl)-1,2,4-oxadiazol-3-yl)benzoic acid], the “Pharm Set” value in series [1] is listed as “Inactive”. Further, in series [2], the “RLU values Exp.” value is 4.171.
`COC(=O)c1cccc(-c2noc(-c3ccc(F)cc3F)n2)c1` [Compound 10-NV1171, Methyl 3-(5-(2,4-difluorophenyl)-1,2,4-oxadiazol-3-yl)ben-zoate)]: the “Pharm Set” value in series [1] was “Moderate (as moderate actives, compounds with 4.39≤FLUC values ≤4,51)”. The “RLU values Exp.” value in series [2] was 4.439.
`Cc1cccc(-c2noc(-c3cccc(C)c3)n2)c1` [Compound 20-NV1905, 3-(3-toluyl), 5-(3-toluyl)-1,2,4-oxadiazole]: in series [1], the “Pharm Set” value is “Inactive”. Further, the “RLU values Exp.” value in series [1] (luciferase activity converted to pFLUC, [3] unpublished data) amounted to 4.181.
Turning to `O=C(O)c1cccc(-c2noc(-c3ccccc3F)n2)c1` [ATALUREN, 3-(5-(2-Fluorophenyl)-1,2,4-oxadiazol-3-yl)benzoic acid], in series [1], the “Pharm Set” value was “Active”. The values for the dead cells in the series with HeLa cells (24 h) and with HeLa cells (72 h) were 4% and 7%, respectively. For the same compound, in series [2], the “RLU values Exp.” value was 4.52 and 4.528.
In the case of `COC(=O)c1cccc(-c2noc(-c3c(F)c(F)c(F)c(F)c3F)n2)c1` [Compound 13-NV1951], the “Pharm Set” value in series [1] is “Inactive”. Moreover, the “RLU values Exp.” value in series [2] is given as 4.008.
As to `COc1cccc(C(=O)c2nc(-c3ccccn3)no2)c1` [Compound 23-NV1940, 3-(2-pyridyl)-5-(3′-anisoyl)-1,2,4-oxadiazole], in series [1], the “Pharm Set” value is listed as “Inactive”. For the same compound, the “RLU values Exp.” value in series [2] is given as 4.000.
With `Cc1cccc(-c2noc(-c3ccccc3C)n2)c1` [Compound 19-NV1894, 3-(3-toluyl), 5-(2-toluyl)-1,2,4-oxadiazole], in series [1], the “Pharm Set” value is “Moderate (as moderate actives, compounds with 4.39≤FLUC values ≤4,51)”. The “RLU values Exp.” value in series [2] was 4.250.
Regarding `COC(=O)c1cccc(-c2noc(-c3ccccc3F)n2)c1` [Compound 1-NV1103], in series [1], the “Pharm Set” value is listed as “Active”. In series [2], the “RLU values Exp.” value is on record as 4.532.
Consider `COc1cccc(C(=O)c2nc(-c3ccncc3)no2)c1` [Compound 22-NV1919, 3-(4′-pyridyl)-5-(3′-anisoyl)-1,2,4-oxadiazole], for which the “Pharm Set” value in series [1] is “Moderate (as moderate actives, compounds with 4.39≤FLUC values ≤4,51)”. For the same compound, the “RLU values Exp.” value in series [2] is recorded as 4.253.
`COC(=O)c1cccc(-c2noc(-c3cc(F)c(F)cc3F)n2)c1` [Compound 4-NV1128, Methyl 3-(5-(2,4,5-trifluorophenyl)-1,2,4-oxadiazol-3-yl) benzoate)]: in series [1], the “Pharm Set” value was “Moderate (as moderate actives, compounds with 4.39≤FLUC values ≤4,51)”. Besides, the “RLU values Exp.” value in series [2] is recorded as 4.397.
As for `N#Cc1cccc(-c2nc(-c3ccccn3)no2)c1` [Compound 15-NV1859, 3-(2′-pyridyl)-5-(3′-cyanophenyl)-1,2,4-oxadiazole], the “Pharm Set” value in series [1] is reported as “Moderate (as moderate actives, compounds with 4.39≤FLUC values ≤4,51)”. Further, the “RLU values Exp.” value in series [2] is given as 4.363.
On to `Cc1cccc(-c2nc(-c3ccccn3)no2)c1` [Compound 21-NV1898, 3-(2-pyridyl)-5-(3′-toluyl)-1,2,4-oxadiazole], for which, in series [1], the “Pharm Set” value was “Active”. In series [2], the “RLU values Exp.” value is 4.551.
